{"source": "patent US20050065732A1", "about": "“Matrix methods for quantitatively analyzing and assessing the properties of botanical samples” (priority 2001, published 2005)", "origin": "cited, not measured here", "key": {"[1]": {"system": "human umbilical vein endothelial cells (HUVECs)"}}}
{"smiles": "CC(C)(O)[C@@H]1CC[C@](C)([C@H]2[C@@H](O)C[C@@]3(C)[C@@H]4C[C@H](O[C@@H]5O[C@H](CO)[C@@H](O)[C@H](O)[C@H]5O)[C@H]5C(C)(C)[C@@H](O[C@@H]6OC[C@@H](O)[C@H](O)[C@H]6O)CC[C@@]56C[C@@]46CC[C@]23C)O1", "note": "[astragaloside IV]", "values": [{"measurement": "plasminogen activator inhibitor type I (PAI-1) specific mRNA expression", "setting": "[1]", "result": "decreased"}, {"measurement": "tissue-type plasminogen activator (t-PA) specific mRNA", "setting": "[1]", "result": "increased"}]}
{"smiles": "CC(C)=CCC[C@](C)(O[C@@H]1O[C@H](CO)[C@@H](O)[C@H](O)[C@H]1O)[C@H]1CC[C@]2(C)[C@@H]1[C@H](O)C[C@@H]1[C@@]3(C)CC[C@H](O)C(C)(C)[C@@H]3[C@@H](O[C@@H]3O[C@H](CO)[C@@H](O)[C@H](O)[C@H]3O[C@@H]3OC[C@@H](O)[C@H](O)[C@H]3O)C[C@]12C", "note": "[NR1, notoginsenoside R1]", "values": [{"measurement": "PAI-1 antigen synthesis", "setting": "HUVECs", "result": "did not change"}, {"measurement": "TPA mRNA", "setting": "HUVECs", "result": "increased as much as twofold"}, {"measurement": "TPA synthesis", "setting": "HUVECs", "result": "dose- and time-dependent increase"}, {"measurement": "expression of PAI-1-specific mRNA", "setting": "HUVECs", "result": "not significantly affected"}, {"measurement": "urokinase-type plasminogen activator antigen synthesis", "setting": "HUVECs", "result": "did not change"}]}
